Common to all, as to experiment: NCI-60 cell line screen, 48 h
For test [1], the system named is HS 578T breast.
Test [2] deals with SK-MEL-28 melanoma.
Test [3] relates to NCI-H226 lung.
Test [4] has as its system UACC-62 melanoma.
In test [5] the test system is T-47D breast.
Test [6] relates to SN12C renal.
The test system of test [7] is UO-31 renal.
For test [8], the system named is MALME-3M melanoma.
Test [9] deals with SR leukemia.
Test [10] relates to LOX IMVI melanoma.

This passage reports TGI and GI50 results from PubChem BioAssay (NCI).

“And” between values parts separate entries of the source, which are not always exact repeats. Equal values may be shown once.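 Method: 48-hour compound exposure of cells in 96-well plates, five concentrations, linear interpolation of endpoints. GI50 marks 50% less growth. TGI denotes the concentration required for complete inhibition of growth.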 Where only a bound is given, the exact number is not on record here.

Take `N#Cc1c(-c2ccc(Cl)cc2)[nH]c(=O)n(C2OC(CO)C(O)C(O)C2O)c1=O` (stereo unspecified): the TGI in test [1], in test [2], in test [3], in test [4], in [5] and in test [6] was > 100 µM in each case. Moreover, the TGI in test [7] is > 100 µM.
In the case of `Cc1ccc(S(=O)(=O)Oc2nc3ccccc3nc2OS(=O)(=O)c2ccc(C)cc2)cc1`, the TGI in test [8] was 35 µM; in test [1] it was > 100 µM; in test [2], > 100 µM; in test [3], > 100 µM; in test [9] it was > 100 µM; in test [4], > 100 µM. For the same molecule, the TGI in [6], in test [10] and in test [7] was > 100 µM throughout.
For `CC(C)NC(=O)OCc1c(CO)c2c(n1C)-c1ccccc1CC2`, the TGI is > 31.6 µM in test [8]; 64.4 µM in test [2]; > 64.5 µM in [3]; 36.6 µM in test [4]; 59.8 µM in [6]; 56.8 µM in [10]. For the same molecule, the TGI in test [7] stood at 71.4 µM.
Consider `O=C(CN1CCOCC1)c1ccc2c(c1)oc(=O)n2CCN1CCOCC1`, for which the TGI in test [8], in test [1], in test [2], in [3], in test [9] and in test [6] was > 100 µM throughout. The TGI in [10] is > 100 µM.
As to `COC(=O)c1ccc(N=NN(C)COc2ccc(Br)cc2)cc1`, the TGI in test [8], in [2], in test [3], in test [4], in test [6] and in [10] was > 100 µM throughout. Further, the TGI in test [7] was > 100 µM.
For `CCOc1ccc(N/C(=C(/C(Cl)=C(/Cl)N2CCCCC2)[N+](=O)[O-])n2nnc3ccccc32)cc1`, the TGI worked out at 39.6 µM in test [8]; 34.2 µM in test [2]; 58.7 µM in [3]; 31.6 µM in test [4]; 49.6 µM in test [5]; 41.9 µM in test [6]. In test [7], this molecule registered a TGI of 4.17 µM.
`Cc1ccc(/C(O)=C/C(=O)C(=O)NC23CC4CC(CC(C4)C2)C3)cc1`: the TGI in test [8], in test [2], in test [9], in test [4], in test [5] and in test [6] was > 10 µM throughout. Further, in test [10], the TGI is > 10 µM.
Regarding `CC(=O)Nc1ccc2c3c(cc(O)c2c1)N(C(=O)CCCCCCC(=O)N1CC(CCl)c2c1cc(O)c1cc(NC(C)=O)ccc21)CC3CCl` (stereo unspecified), the TGI was 0.0233 µM in test [8]; > 100 µM in test [2]; 0.013 µM in test [4]; < 0.01 µM in [5]; 0.237 µM in test [6]; 0.361 µM in test [10].
Regarding `CN1C(=O)C2(C=CC(O)CC2)c2ccccc21` (stereo unspecified), the TGI in test [2], in [3], in test [9], in test [4], in test [5] and in [6] was > 100 µM each time. The TGI in test [10] and in test [7] was > 100 µM each time.
As for `CC(C)NC(=O)N(Nc1ccccc1)C(C)(C)C`, the TGI in test [8], in test [1], in test [2], in test [3], in test [9] and in test [4] was > 100 µM throughout. The TGI in [6], in [10] and in [7] was > 100 µM in each case.
Consider `O=c1[nH]nc(-c2ccccc2)n1/N=C/c1cccs1`, for which the TGI in test [8], in [1], in test [2], in [3], in [4] and in [5] was > 100 µM each time. For the same molecule, the TGI in [6], in test [10] and in test [7] was > 100 µM in each case.
As for `COc1ccc(N2C(=O)C3c4[nH]c5ccc(Br)cc5c4C4CCC(C(C)(C)C)CC4C3C2=O)cc1` (stereo unspecified), the TGI in [8], in [1], in [2], in [3], in test [9] and in test [4] was > 100 µM throughout. The TGI in [6] and in [10] was > 100 µM throughout.
`CC1SCc2nc3ccccc3n21` (stereo unspecified): the TGI in [8], in test [1], in test [2], in test [3], in test [4] and in test [5] was > 100 µM each time. The TGI in test [6], in test [10] and in test [7] was > 100 µM throughout.
As to `CCOC(=O)C(Cc1ccc(OC(=O)c2ccc(OC)cc2)cc1)NC(=O)C(F)(F)F` (stereo unspecified), the TGI in test [8], in [1], in [3], in [4], in [5] and in [6] was > 100 µM in each case. The TGI in test [10] and in [7] was > 100 µM throughout.
On to `CCCCCCCCCCCCCCCCCCNC(=S)/N=C\C1=C(O)c2ccccc2C1=O`, for which the TGI is 28.1 µM in test [8]; 35 µM in test [1]; 30.7 µM in test [2]; 25.6 µM in [3]; 37.2 µM in [5]; 31.1 µM in test [6]. In addition, the figures for the TGI in [10] and in [7] were 17 µM and 23.3 µM, respectively.
With `COc1cc(/C=N/n2c(-c3ccccc3)nn(C(C)=O)c2=O)cc(OC)c1OC`, the TGI is > 46.6 µM in [8]; > 26.9 µM in [1]; > 80.6 µM in [2]; > 100 µM in test [3]; 31.4 µM in [4]; > 100 µM in test [5]. The TGI in test [6] is > 100 µM; in test [10] it was > 100 µM; in test [7] it was 54.4 µM.
For the molecule `CCOC(=O)C1=CCOc2cc(N(C)C)ccc21`, the TGI in [8], in test [1], in test [2], in test [3], in test [9] and in [4] was > 100 µM throughout. Also, the TGI in test [6], in test [10] and in [7] was > 100 µM throughout.
`CC(=O)OCC1OC(n2c(-c3ccccc3)c(C(C)=O)c(-c3cccc4ccccc34)c(C#N)c2=S)C(OC(C)=O)C(OC(C)=O)C1OC(C)=O` (stereo unspecified): the TGI in test [8], in test [2], in test [3], in [9], in test [4] and in test [5] was > 100 µM throughout. Moreover, the TGI in [6] is > 100 µM; in test [10], > 100 µM; in [7], 0.0252 µM. For the same molecule, in test [4], the GI50 is 80.4 µM and 26.7 µM.
With `C=C(CCC/C(C)=C/C=C/[C@@H](C)CCCc1ccoc1)C[C@@H]1OC(=O)[C@H](C)[C@@H]1O`, the TGI in [8] was 18.1 µM; in [2] it was 19.1 µM; in test [3], 14.1 µM; in test [9], > 50 µM; in [4], 12.3 µM; in test [5] it was 26.2 µM. Also, the TGI worked out at 20.6 µM in test [6], 21.8 µM in test [10] and 15.9 µM in test [7].
As to `CC(C)N=C(N)NC#N`, the TGI in test [8], in test [3], in test [4], in test [6], in test [10] and in test [7] was > 100 µM throughout.
Take `CC(=O)NC1(c2cc3ccccc3s2)CCCCCC1`: the TGI in [2] is > 100 µM; in [3] it was > 100 µM; in test [9] it was 93.1 µM; in test [4] it was > 100 µM; in test [6], > 100 µM; in [10], > 100 µM. For the same molecule, the TGI in test [7] was > 100 µM.
On to `[N-]=[N+]=NC(c1cn(C2CC(O)C(CO)O2)c(=O)[nH]c1=O)C(Cl)I` (stereo unspecified), for which the TGI in [1], in test [2], in test [3], in test [4], in test [5] and in test [6] was > 100 µM each time. For the same molecule, the TGI in test [7] is > 100 µM.
For the molecule `COc1cc(C2c3cc4c(cc3OC(NNS(=O)(=O)c3ccc(C)cc3)C2C)OCO4)cc(OC)c1O` (stereo unspecified), the TGI is 25 µM in [8]; 55.3 µM in [1]; > 100 µM in test [2]; 60.2 µM in test [3]; 40.9 µM in [4]; > 100 µM in [5]. Further, the TGI in [6] is > 100 µM; in test [10], 52.3 µM.
As for `Cc1c2c(c(O)c3c(O)cccc13)C(=O)C1(O)C(O)=C(C(=O)NCNc3ccc(C(N)=O)cn3)C(=O)C(N(C)C)C1C2` (stereo unspecified), the TGI in [8] is > 100 µM; in test [2] it was 14.6 µM; in test [3] it was > 100 µM; in test [9], 9.53 µM; in test [4], 9.59 µM; in [5] it was > 100 µM. Further, the TGI in test [6] and in test [10] was > 100 µM each time.
Regarding `CC1=C(O)C(=O)C2C(=O)C1C1Cc3ccccc3C21` (stereo unspecified), the TGI in test [8], in test [2], in [3], in test [9], in [4] and in [10] was > 100 µM each time. Besides, in test [7], the TGI was > 100 µM.
Take `COc1ccc(C2SCC(=O)N2NC(=O)c2ccc(NC(C)=O)cc2)c(OC)c1` (stereo unspecified): the TGI in test [1], in test [2], in [3], in test [4], in test [5] and in test [6] was > 100 µM throughout. Also, the TGI in test [7] was > 100 µM.
Regarding `COc1ccccc1-c1cc(=O)c2cc3c(cc2[nH]1)OCO3`, the TGI in test [8] is > 100 µM; in [2] it was > 100 µM; in test [3], 88.8 µM; in test [9], > 100 µM; in test [4], > 100 µM; in [6], > 100 µM. Moreover, the TGI in test [10] and in test [7] was > 100 µM each time. Also, the GI50 in test [3] was 22.8 µM.
On to `N#CC(Cc1ccccc1)N(CCC1=CCCCC1)Cc1ccccc1` (stereo unspecified), for which the TGI in test [8], in test [1], in [2], in test [4], in test [5] and in test [7] was > 100 µM each time.
Consider `COc1ccc(/C(Cl)=C(\C=N/O)c2ccc(OC)c(OC)c2)cc1OC`, for which the TGI in [8], in test [2], in [3], in test [9], in [4] and in [6] was > 100 µM in each case. Also, the TGI in [10] and in test [7] was > 100 µM each time.
For `Cc1cc(/C=C/c2cc[n+](C)c3ccccc23)c(O)c2ncccc12`, the TGI in test [8] came to 12.4 µM; in test [2], 13.6 µM; in test [3], 7.14 µM; in [9], 4.3 µM; in test [4] it was 9.19 µM; in test [6], 16 µM. Further, the TGI in test [10] was found to be 12.3 µM; in [7], 21.3 µM.
For `Cc1c(N2CCN(C)CC2)nc2ccc(Cl)cc2c1-c1ccccc1`, the TGI in test [8] was found to be 35.7 µM; in [2], 32.9 µM; in test [9], 39.2 µM; in test [4], 30.3 µM; in [6], 29 µM; in test [10] it was 28.3 µM. Besides, in test [7], the TGI was determined as 36.1 µM.
In the case of `COC1C(O)C(n2ncc3c(SC)nc(SC)nc32)OC1C(O)CO` (stereo unspecified), the TGI in test [8], in test [2], in test [3], in test [4], in [6] and in test [10] was > 100 µM in each case. Also, in test [7], the TGI was > 100 µM.
For the molecule `N#Cc1c(N2CCC(O)C2)c2ccccc2n2c1nc1ccccc12` (stereo unspecified), the TGI in [8], in test [1], in [2], in test [4], in test [5] and in test [6] was > 100 µM throughout. The TGI in test [10] and in test [7] was > 100 µM in each case.
